The NIST ThermoML archive (doi:10.1016/j.fluid.2019.06.004)
± gives the expanded uncertainty stated by the source.

Key:
[1] = Molar enthalpy of transition or fusion; conditions: DSC

For NC(=O)c1cnccn1 [pyrazinecarboxamide], the “Molar enthalpy of transition or fusion” value ([1]; Crystal 2) was 0.363 ± 0.043 kcal/mol, the “Molar enthalpy of transition or fusion” value ([1]; Crystal) was 6.09 ± 0.502 kcal/mol and the Normal melting temperature (Crystal) was 188.96 ± 2.2 °C. The Triple point temperature (Crystal 2, DSC) was 421.11 ± 1.2 K.
